Measured values reported in PMC3042124 (Organic & biomolecular chemistry, 2010).

How the values were obtained:
Assay type in all cases: biochemical
[1] = biological target: β1 subunit of the constitutive proteasome (Homo sapiens, UniProt P28072+Q99436)
[2] = biological target: β5 subunit of the constitutive proteasome (Homo sapiens, UniProt P20618+P28074)
[3] = biological target: β2 subunit of the constitutive proteasome (Homo sapiens, UniProt P49720+Q99436)

SMILES | IC50 [1] | IC50 [2] | IC50 [3]
COc1ccc(C[C@H](NC(=O)Cc2ccc3ccccc3c2)C(=O)N[C@@H](Cc2ccccc2)C(=O)N[C@H](/C=C/S(=O)(=O)c2ccc(O)cc2)CC(C)C)cc1 [IIa, (Tyr(Me)-Phe-Leu-4-hydroxyphenyl-vinylsulfone)-2-(naphthalen-2-yl)-acetamide] | 32 ± 16 µM | 0.07 ± 0.01 µM | 78 ± 23 µM
COc1ccc(C[C@H](NC(=O)Cc2ccc3ccccc3c2)C(=O)N[C@@H](Cc2ccccc2)C(=O)N[C@H](/C=C/S(C)(=O)=O)CC(C)C)cc1 [IIb, (Tyr(Me)-Phe-Leu-methyl-vinylsulfone)-2-(naphthalen-2-yl)-acetamide] | > 100 µM | 0.11 ± 0.02 µM | > 100 µM
CCCC[C@H](NC(=O)[C@@H]1CCCN1C(=O)[C@H](C)NC(C)=O)C(=O)N[C@H](/C=C/S(=O)(=O)c1ccc(O)cc1)CC(C)C [Ia, Ac-Ala-Pro-Nle-Leu-4-hydroxyphenyl-vinylsulfone] | 4 ± 0.67 µM | > 100 µM | > 100 µM
CCCC[C@H](NC(=O)[C@@H]1CCCN1C(=O)[C@H](C)NC(C)=O)C(=O)N[C@H](/C=C/S(C)(=O)=O)CC(C)C [Ib, Ac-Ala-Pro-NLe-Leu-methyl-vinylsulfone] | 7.8 ± 0.86 µM | > 100 µM | > 100 µM
